Data taken from patent publication US8993586B2, “N1/N2-lactam acetyl-CoA carboxylase inhibitors” (Pfizer Inc., priority 2010, dated 2015).

Columns and labels:
[1] = target: recombinant human ACC1 (rhACC1) (Homo sapiens (Human), UniProt Q13085); test: recombinant hACC1 Transcreener ADP detection FP assay; format: biochemical; conditions: 50 μM ATP, 120 min at 25° C.
Protocol: (§1) For example direct inhibition of ACC activity, for the compound of Formula (I) was determined using preparations of recombinant human ACC1 (rhACC1) and recombinant human ACC2 (rhACC2).
[1] Preparation of rhACC1. Two liters of SF9 cells, infected with recombinant baculovirus containing full length human ACC1 cDNA, were suspended in ice-cold lysis buffer (25 mM Tris, pH 7.5; 150 mM NaCl; 10% glycerol; 5 mM imidazole (EMD Bioscience; Gibbstown, N.J.); 2 mM TCEP (BioVectra; Charlottetown, Canada); Benzonase nuclease (10000 U/100 g cell paste; Novagen; Madison, Wis.); EDTA-free protease inhibitor cocktail (1 tab/50 mL; Roche Diagnostics; Mannheim, Germany). Cells were lysed by 3 cycles of freeze-thaw and centrifuged at 40,000×g for 40 minutes (4° C.). Supernatant was directly loaded onto a HisTrap FF crude column (GE Healthcare; Piscataway, N.J.) and eluted with an imidazole gradient up to 0.5 M over 20 column volumes (CV). ACC1-containing fractions were pooled and diluted 1:5 with 25 mM Tris, pH 7.5, 2 mM TCEP, 10% glycerol and direct loaded onto a CaptoQ (GE Healthcare) column and eluted with an NaCl gradient up to 1 M over 20 CV's. Phosphate groups were removed from purified ACC1 by incubation with lambda phosphatase (100 U/10 μM target protein; New England Biolabs; Beverly, Mass.) for 14 hours at 4° C.; okadaic acid was added (1 μM final concentration; Roche Diagnostics) to inhibit the phosphatase. Purified ACC1 was exchanged into 25 mM Tris, pH 7.5, 2 mM TCEP, 10% glycerol, 0.5 M NaCl by 6 hour dialysis at 4° C. Aliquots were prepared and frozen at −80° C.
[2] Measurement of rhACC1 inhibition. hACC1 was assayed in a Costar #3676 (Costar, Cambridge, Mass.) 384-well plate using the Transcreener ADP detection FP assay kit (Bellbrook Labs, Madison, Wis.) using the manufacturer's recommended conditions for a 50 μM ATP reaction. The final conditions for the assay were 50 mM HEPES, pH 7.2, 10 mM MgCl2, 7.5 mM tripotassium citrate, 2 mM DTT, 0.1 mg/mL BSA, 30 μM acetyl-CoA, 50 μM ATP, and 10 mM KHCO3 Typically, a 10 μl reaction was run for 120 min at 25° C., and 10 μl of Transcreener stop and detect buffer was added and the combination incubated at room temp for an additional 1 hour. The data was acquired on a Envision Fluorescence reader (PerkinElmer) using a 620 excitation Cy5 FP general dual mirror, 620 excitation Cy5 FP filter, 688 emission (S) and a 688 (P) emission filter.

[2] = target: recombinant human ACC2 (rhACC2) (Homo sapiens (Human), UniProt O00763); test: recombinant hACC2 Transcreener ADP detection FP assay; format: biochemical; conditions: 50 uM ATP, 50 min at 25° C.
Chain of recombinant human ACC2 (rhACC2) (O00763 whole entry V2141I): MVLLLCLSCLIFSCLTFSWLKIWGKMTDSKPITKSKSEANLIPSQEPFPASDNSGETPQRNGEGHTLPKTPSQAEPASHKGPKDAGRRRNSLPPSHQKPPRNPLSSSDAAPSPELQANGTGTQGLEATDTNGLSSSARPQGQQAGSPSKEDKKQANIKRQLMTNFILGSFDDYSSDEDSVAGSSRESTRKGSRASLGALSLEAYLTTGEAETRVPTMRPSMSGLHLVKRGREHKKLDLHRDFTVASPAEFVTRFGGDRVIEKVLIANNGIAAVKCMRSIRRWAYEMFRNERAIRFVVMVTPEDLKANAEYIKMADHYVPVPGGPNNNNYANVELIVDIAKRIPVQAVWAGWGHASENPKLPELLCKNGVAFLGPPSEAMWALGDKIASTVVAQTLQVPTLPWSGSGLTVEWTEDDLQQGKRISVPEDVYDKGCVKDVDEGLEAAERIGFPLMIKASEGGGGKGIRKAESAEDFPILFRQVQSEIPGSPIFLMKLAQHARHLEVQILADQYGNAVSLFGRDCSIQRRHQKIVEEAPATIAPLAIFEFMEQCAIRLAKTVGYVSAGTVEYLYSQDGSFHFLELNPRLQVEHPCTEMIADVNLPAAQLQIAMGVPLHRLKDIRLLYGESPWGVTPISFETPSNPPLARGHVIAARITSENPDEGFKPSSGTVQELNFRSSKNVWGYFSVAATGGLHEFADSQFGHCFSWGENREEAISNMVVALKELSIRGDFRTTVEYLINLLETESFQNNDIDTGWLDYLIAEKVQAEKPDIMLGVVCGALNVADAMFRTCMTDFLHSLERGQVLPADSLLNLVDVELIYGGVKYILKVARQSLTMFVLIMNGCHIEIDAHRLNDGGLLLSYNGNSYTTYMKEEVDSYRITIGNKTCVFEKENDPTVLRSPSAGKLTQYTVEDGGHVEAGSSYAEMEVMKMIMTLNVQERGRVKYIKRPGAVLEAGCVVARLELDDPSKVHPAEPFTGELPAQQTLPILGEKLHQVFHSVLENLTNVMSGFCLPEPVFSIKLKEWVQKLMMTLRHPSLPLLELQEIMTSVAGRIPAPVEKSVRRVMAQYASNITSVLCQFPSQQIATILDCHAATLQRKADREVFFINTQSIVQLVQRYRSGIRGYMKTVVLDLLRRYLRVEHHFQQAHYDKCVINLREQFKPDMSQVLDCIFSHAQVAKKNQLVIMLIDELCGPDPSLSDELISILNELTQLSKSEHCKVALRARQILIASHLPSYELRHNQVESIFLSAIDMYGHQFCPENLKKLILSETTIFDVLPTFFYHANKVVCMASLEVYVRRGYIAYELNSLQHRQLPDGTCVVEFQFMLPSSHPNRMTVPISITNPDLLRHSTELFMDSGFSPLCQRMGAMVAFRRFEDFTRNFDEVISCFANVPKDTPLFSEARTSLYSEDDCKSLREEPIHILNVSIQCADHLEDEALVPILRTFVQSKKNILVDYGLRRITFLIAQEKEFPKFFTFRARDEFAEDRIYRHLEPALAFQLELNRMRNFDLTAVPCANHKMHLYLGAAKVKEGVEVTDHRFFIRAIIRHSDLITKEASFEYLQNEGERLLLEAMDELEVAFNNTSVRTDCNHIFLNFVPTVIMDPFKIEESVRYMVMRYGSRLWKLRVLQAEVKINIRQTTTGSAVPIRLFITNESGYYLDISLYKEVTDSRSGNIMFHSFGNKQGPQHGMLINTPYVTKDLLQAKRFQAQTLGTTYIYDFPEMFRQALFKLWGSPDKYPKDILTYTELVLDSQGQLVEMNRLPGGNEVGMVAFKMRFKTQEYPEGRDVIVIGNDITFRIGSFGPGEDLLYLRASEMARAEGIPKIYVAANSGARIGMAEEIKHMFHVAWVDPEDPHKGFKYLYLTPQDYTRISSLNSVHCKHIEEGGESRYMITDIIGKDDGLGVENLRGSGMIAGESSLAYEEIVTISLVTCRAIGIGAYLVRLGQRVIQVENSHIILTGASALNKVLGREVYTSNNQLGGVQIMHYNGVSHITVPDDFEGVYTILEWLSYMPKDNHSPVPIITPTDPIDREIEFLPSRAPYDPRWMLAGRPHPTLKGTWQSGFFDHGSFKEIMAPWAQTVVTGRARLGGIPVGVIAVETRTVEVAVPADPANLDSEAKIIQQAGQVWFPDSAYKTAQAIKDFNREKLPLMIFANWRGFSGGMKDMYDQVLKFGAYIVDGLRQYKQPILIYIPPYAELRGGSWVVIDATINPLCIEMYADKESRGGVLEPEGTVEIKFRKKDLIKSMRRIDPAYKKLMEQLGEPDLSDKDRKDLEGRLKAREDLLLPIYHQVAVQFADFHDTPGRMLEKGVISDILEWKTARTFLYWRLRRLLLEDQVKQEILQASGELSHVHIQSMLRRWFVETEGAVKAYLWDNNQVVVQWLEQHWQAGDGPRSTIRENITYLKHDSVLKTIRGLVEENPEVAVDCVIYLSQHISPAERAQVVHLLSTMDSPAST
Protocol: as §1
[3] Preparation of rhACC2. Human ACC2 inhibition was measured using purified recombinant human ACC2 (hrACC2). Briefly, a full length Cytomax clone of ACC2 was purchased from Cambridge Bioscience Limited and was sequenced and subcloned into PCDNA5 FRT TO-TOPO (Invitrogen, Carlsbad, Calif.). The ACC2 was expressed in CHO cells by tetracycline induction and harvested in 5 liters of DMEM/F12 with glutamine, biotin, hygromycin and blasticidin with 1 μg/mL tetracycline (Invitrogen, Carlsbad, Calif.). The conditioned medium containing ACC2 was then applied to a Softlink Soft Release Avidin column (Promega, Madison, Wis.) and eluted with 5 mM biotin. […] The purified ACC2 was dialyzed in 50 mM Tris, 200 mM NaCl, 4 mM DTT, 2 mM EDTA, and 5% glycerol. […] For measurement of ACC2 activity and assessment of ACC2 inhibition, test compounds were dissolved in DMSO and added to the rhACC2 enzyme as a 5× stock with a final DMSO concentration of 1%.
[4] Measurement of human ACC2 inhibition. hACC2 was assayed in a Costar #3676 (Costar, Cambridge, Mass.) 384-well plate using the Transcreener ADP detection FP assay kit (Bellbrook Labs, Madison, Wis.) using the manufacturer's recommended conditions for a 50 uM ATP reaction. The final conditions for the assay were 50 mM HEPES, pH 7.2, 5 mM MgCl2, 5 mM tripotassium citrate, 2 mM DTT, 0.1 mg/mL BSA, 30 μM acetyl-CoA, 50 μM ATP, and 8 mM KHCO3 Typically, a 10 μl reaction was run for 50 min at 25° C., and 10 μl of Transcreener stop and detect buffer was added and the combination incubated at room temp for an additional 1 hour. The data was acquired on an Envision Fluorescence reader (PerkinElmer) using a 620 excitation Cy5 FP general dual mirror, 620 excitation Cy5 FP filter, 688 emission (S) and a 688 (P) emission filter.

SMILES	IC50 [1] [nM]	IC50 [2] [nM]
Cc1nc2cc(C(=O)N3CCC4(CC3)Cc3cnn(C(C)C)c3C(=O)N4)ccc2[nH]1 [Example 1, 1′-isopropyl-1-(2-methyl-1H-benzo[d]imidazole-5-carbonyl)-4′,6′-dihydrospiro[piperidine-4,5′-pyrazolo[3,4-c]pyridin]-7′(1′H)-one]	417	312
CC(C)n1ncc2c1C(=O)NC1(CCN(C(=O)c3ccc4nn(C)cc4c3)CC1)C2 [Example 3, 1′-isopropyl-1-(2-methyl-2H-indazole-5-carbonyl)-4′,6′-dihydrospiro[piperidine-4,5′-pyrazolo[3,4-c]pyridin]-7′(1′H)-one]	3920	2280
Cc1cc(C(=O)N2CCC3(CC2)Cc2cnn(C(C)C)c2C(=O)N3)cc2c[nH]nc12 [Example 4]	43	38
CC(C)n1ncc2c1C(=O)NC1(CCN(C(=O)c3ccc4[nH]ncc4c3)CC1)C2 [Example 5]	227	174
CC(C)(C)n1ncc2c1C(=O)NC1(CCN(C(=O)c3ccc4n[nH]cc4c3)CC1)C2 [Example 6]	269	305
Cc1cc(C(=O)N2CCC3(CC2)Cc2cnn(C(C)(C)C)c2C(=O)N3)cc2cn[nH]c12 [Example 7]	62	47
CC(C)n1ncc2c1C(=O)NC1(CCN(C(=O)c3cnc4[nH]ccc4c3)CC1)C2 [Example 9]	648	560
CC(C)n1ncc2c1C(=O)NC1(CCN(C(=O)c3cnc4cc[nH]c4c3)CC1)C2 [Example 10]	403	498
CC(C)n1ncc2c1C(=O)NC1(CCN(C(=O)c3cc(Cl)c4[nH]ncc4c3)CC1)C2 [Example 11]	88	72
COc1cc(C(=O)N2CCC3(CC2)Cc2cnn(C(C)C)c2C(=O)N3)cc2[nH]ncc12 [Example 12]	35	37
CC(C)n1ncc2c1C(=O)NC1(CCN(C(=O)c3ccc4c(cnn4C)c3)CC1)C2 [Example 13]	2040	1550
CCc1cc(C(=O)N2CCC3(CC2)Cc2cnn(C(C)C)c2C(=O)N3)cc2cn[nH]c12 [Example 14]	131	91
CCc1n[nH]c2ccc(C(=O)N3CCC4(CC3)Cc3cnn(C(C)C)c3C(=O)N4)cc12 [Example 15]	251	143
Cc1n[nH]c2ccc(C(=O)N3CCC4(CC3)Cc3cnn(C(C)C)c3C(=O)N4)cc12 [Example 16]	118	90
COc1cc(C(=O)N2CCC3(CC2)Cc2cnn(C(C)C)c2C(=O)N3)nc2c(OC)cccc12 [Example 17]	72	31
CC(C)n1ncc2c1C(=O)NC1(CCN(C(=O)c3cc4ncccc4[nH]3)CC1)C2 [Example 18]	657	719
CC(C)n1ncc2c1C(=O)NC1(CCN(C(=O)c3cnc4cn[nH]c4c3)CC1)C2 [Example 19]	1480	2010
CC(C)n1ncc2c1C(=O)NC1(CCN(C(=O)c3cnc4ccccc4c3)CC1)C2 [Example 20]	336	299

Now from value to compound:

IC50 [1] [nM]	IC50 [2] [nM]	SMILES
619	341	CC(C)n1ncc2c1C(=O)NC1(CCN(C(=O)c3ccc4ncccc4c3)CC1)C2 [Example 21]
1250	843	CC(C)n1ncc2c1C(=O)NC1(CCN(C(=O)c3ccc4cnccc4c3)CC1)C2 [Example 22]
621	520	CC(C)n1ncc2c1C(=O)NC1(CCN(C(=O)c3ccc4ccncc4c3)CC1)C2 [Example 23]
688	320	CC(C)n1ncc2c1C(=O)NC1(CCN(C(=O)c3ccc4cccnc4c3)CC1)C2 [Example 24]
259	137	CC(C)n1ncc2c1C(=O)NC1(CCN(C(=O)c3ccc4[nH]nc(C#N)c4c3)CC1)C2 [Example 25]
121	60	COc1ccc2ncc(C(=O)N3CCC4(CC3)Cc3cnn(C(C)C)c3C(=O)N4)cc2c1 [Example 26]
296	132	CC(C)n1ncc2c1C(=O)NC1(CCN(C(=O)c3ccc4[nH]nc(C(N)=O)c4c3)CC1)C2 [Example 27]
158	56	COc1ccc2ccc(C(=O)N3CCC4(CC3)Cc3cnn(C(C)C)c3C(=O)N4)cc2n1 [Example 28]
33	9.2	CNc1ccc2ccc(C(=O)N3CCC4(CC3)Cc3cnn(C(C)C)c3C(=O)N4)cc2n1 [Example 29]
98	30	COc1nccc2ccc(C(=O)N3CCC4(CC3)Cc3cnn(C(C)C)c3C(=O)N4)cc12 [Example 30]
179	96	CC(C)n1ncc2c1C(=O)NC1(CCN(C(=O)c3cnc4[nH]cc(Cl)c4c3)CC1)C2 [Example 31]
154	56	CC(C)n1ncc2c1C(=O)NC1(CCN(C(=O)c3cnc4c(Cl)c[nH]c4c3)CC1)C2 [Example 32]
523	108	CNc1nc2cc(C(=O)N3CCC4(CC3)Cc3cnn(C(C)C)c3C(=O)N4)ccc2[nH]1 [Example 33]
116	50	CC(C)n1ncc2c1C(=O)NC1(CCN(C(=O)c3ccc4[nH]nc(Cl)c4c3)CC1)C2 [Example 34]
487	91	CC(C)n1ncc2c1C(=O)NC1(CCN(C(=O)c3ccc4[nH]c(N)nc4c3)CC1)C2 [Example 35]
67	28	CNc1nccc2ccc(C(=O)N3CCC4(CC3)Cc3cnn(C(C)C)c3C(=O)N4)cc12 [Example 36]
302	127	CNc1n[nH]c2ccc(C(=O)N3CCC4(CC3)Cc3cnn(C(C)C)c3C(=O)N4)cc12 [Example 37]
364	107	CNc1cc2ccc(C(=O)N3CCC4(CC3)Cc3cnn(C(C)C)c3C(=O)N4)cc2cn1 [Example 38]
656	177	Cc1nc2cc(C(=O)N3CCC4(CC3)Cc3cn(C(C)C)nc3C(=O)N4)ccc2[nH]1 [Example 40]
68	29	Cc1cc(C(=O)N2CCC3(CC2)Cc2cn(C(C)C)nc2C(=O)N3)cc2cn[nH]c12 [Example 42]
26	10	Cc1cc(C(=O)N2CCC3(CC2)Cc2cn(C(C)(C)C)nc2C(=O)N3)cc2cn[nH]c12 [Example 44]
36	5.3	COc1ccc2cc(C(=O)N3CCC4(CC3)Cc3cn(C(C)(C)C)nc3C(=O)N4)ccc2c1 [Example 46]
30	9.2	COc1ccc2ncc(C(=O)N3CCC4(CC3)Cc3cn(C(C)(C)C)nc3C(=O)N4)cc2c1 [Example 48]
8.5	3.8	COc1ccc2ccc(C(=O)N3CCC4(CC3)Cc3cn(C(C)(C)C)nc3C(=O)N4)cc2c1 [Example 49]
